Results from patent US11878070B2, “Silk-based moisturizer compositions and methods thereof” (Evolved By Nature, Inc., priority 2015, dated 2024).

What was measured:
Assay type in all cases: physicochemical
[1] = Dissolution of vitamin C derivative in aqueous silk solution
From the text: Ascorbyl tetraisopalmitate is a highly viscous, oil soluble liquid that might need the help of an emulsifier to possible dissolve in aqueous silk solution.

[2] = Silk gel formation (days to gelation / time to gel); details: 100 mg of vitamin C derivative in 15 mL of 2% silk solution
From the text: Samples 1-10 were used to examine the effect of silk to vitamin C ratio on serum gelation. Samples 1-3 with less vitamin C gelled quicker than samples 4 and 5. All other conditions were kept constant. Samples 6-8 with less vitamin C gelled quicker than samples 9 and 10. All other conditions were kept constant. It is concluded that decreasing the ratio of silk to vitamin C (increasing the amount of vitamin C) will lengthen the time to gel creation.
Samples 1, 3, 6, 8, O-1, O-2, O-3, and O-4 were used to examine the effect of temperature treatment on serum gelation time. Samples 1, 6, O-1, and O-2 were identical other than temperature treatment. Samples 3, 8, O-3, and O-4 were identical other than temperature treatment. The two groups differed in silk to vitamin C ratio. Time to serum gelation was directly related to temperature treatment with a higher temperature resulting in quicker serum gelation.
All treatments of silk solution for gel solution were in a conical tube at room temperature unless otherwise stated. […] Temperature affected gel creation time with higher temperatures resulting in quicker gel times. 50° C. treatment gelled in as quick as 2 days, 37° C. treatment gelled in as quick as 3 days, room temperature treatment gelled in 5-8 days and storage in a refrigerator took at least 39 days to gel. The effects of additives on gel creation were dependent on the additive. Vitamin E, Rosemary Oil and Rose Oil all had no effect on gel creation. […] Each also required the presence of vitamin C to gel. Lemon juice from a fresh lemon, pre-squeezed lemon juice from a plastic lemon container and lemon grass oil did affect gel creation. […] Both lemon juice types were able to cause gelation without the presence of vitamin C. This occurred in the same number of days as with vitamin C. The lemongrass oil was able to decrease the number of days to gelation to 2-3 days. Ail additives appeared soluble other than lemongrass oil and rose oil. Rose oil remained in yellow bubbles while the lemongrass oil was partially soluble and formed an albumen like chunk. […]

[3] = HPLC chromatograms of samples comprising vitamin C (degradation products); details: after 1 hour at ambient conditions without chemical stabilization
Experimental: No degradation products were visible.
No degradation products were visible. FIG. 59 is a table summarizing the vitamin C concentration in silk protein fragment-films (2% silk films air dried at RT) of the present disclosure. In FIG. 59 processing conditions included 100° C. extraction for 20 min, RT rinse, LiBr in 60° C. oven for 4-6 hours, FIG. 60 is a table summarizing the stability of vitamin C in chemically stabilized solutions. FIGS. 89A-89B are tables summarizing vitamin C stability in SPF gels without chemical stabilizers as compared to chemically stabilized vitamin C in competitive anti-aging skincare products. […] Without wishing to be bound by theory, it appears there is a relationship between vitamin C concentration, silk concentration, and gelation. An increase in vitamin C at a given concentration of silk will result in a longer time to gelation or inhibit gelation. This may be due to the vitamin C molecule physically blocking interaction between silk protein fragments or cross-linking of silk protein.

In the case of `CCCCCCCCC(CCCCCC)C(=O)OC[C@H](OC(=O)C(CCCCCC)CCCCCCCC)[C@H]1OC(=O)C(OC(=O)C(CCCCCC)CCCCCCCC)=C1OC(=O)C(CCCCCC)CCCCCCCC` (some centres unmarked) [Ascorbyl tetraisopalmitate, Ascorbyl Tetraisopalmitate], the “ability to dissolve or be dispersed in aqueous silk solution” value [1] is reported as “unable to dissolve or be dispersed”.

For `O=C1O[C@H]([C@@H](O)CO)C([O-])=C1OP(=O)([O-])[O-].[Na+].[Na+].[Na+]` [Sodium ascorbyl phosphate from DSM, Sodium Ascorbyl Phosphate], the “time to gel formation” value [2] was 28 days.

In the case of `O=C1O[C@H]([C@@H](O)CO)C(O)=C1O[C@H]1O[C@H](CO)[C@@H](O)[C@H](O)[C@H]1O` [Ascorbic acid-2-glucoside, Ascorbic Acid-2-Glucoside], the “time to gel formation” value [2] is reported as 3 days.

In the case of `O=C1O[C@H]([C@@H](O)CO)C([O-])=C1OP(=O)([O-])[O-].[Na+].[Na+].[Na+]` [Sodium ascorbyl phosphate from Aromantic, Sodium Ascorbyl Phosphate], the “time to gel formation” value [2] is reported as “failed to create a gel”.

In the case of `O=C1O[C@H]([C@@H](O)CO)C(O)=C1O` [vitamin C, L-ascorbic acid], the “degradation products (HPLC)” value [3] is reported as “degradation products are visible”.
